# Experimental data: ChEMBL document CHEMBL3797052 (Eur J Med Chem, 2016)
# Columns and labels:
# [1] = Antiproliferative activity against human Caki1 cells assessed as growth inhibition after 48 hrs by sulforhodamine B assay; format: functional; conditions: CAKI-1, 48 h; for CC50: read-out: LC50 (the source's name)
# [2] = system: SN12C; experiment: Antiproliferative activity against human SN12C cells assessed as growth inhibition after 48 hrs by sulforhodamine B assay; format: functional; conditions: for CC50: read-out: LC50 (the source's name)
# [3] = Antiproliferative activity against human SF268 cells assessed as growth inhibition after 48 hrs by sulforhodamine B assay; format: functional; conditions: SF-268, 48 h
# [4] = Antiproliferative activity against human OVCAR5 cells assessed as growth inhibition after 48 hrs by sulforhodamine B assay; format: functional; conditions: OVCAR-5, 48 h; for CC50: read-out: LC50 (the source's name)
# [5] = system: K562; experiment: Antiproliferative activity against human K562 cells assessed as growth inhibition after 48 hrs by sulforhodamine B assay; format: functional; conditions: K562, 48 h; for CC50: read-out: LC50 (the source's name)
# [6] = Antiproliferative activity against human UACC62 cells assessed as growth inhibition after 48 hrs by sulforhodamine B assay; format: functional; conditions: UACC-62, 48 h; for CC50: read-out: LC50 (the source's name)
# [7] = Antiproliferative activity against human IGROV1 cells assessed as growth inhibition after 48 hrs by sulforhodamine B assay; format: functional; conditions: IGROV-1, 48 h; for CC50: read-out: LC50 (the source's name)
# [8] = Antiproliferative activity against human HCT116 cells assessed as growth inhibition after 48 hrs by sulforhodamine B assay; format: functional; conditions: HCT-116, 48 h
# [9] = Antiproliferative activity against human HOP92 cells assessed as cell growth at 10^-6 M after 48 hrs by sulforhodamine B assay; format: functional; conditions: HOP-92, 48 h, read-out: Activity
# [10] = system: A498; experiment: Antiproliferative activity against human A498 cells assessed as cell growth at 10^-6 M after 48 hrs by sulforhodamine B assay; format: functional; conditions: A498, 48 h, read-out: Activity
# [11] = Antiproliferative activity against human RPMI8226 cells assessed as cell growth at 10^-4 M after 48 hrs by sulforhodamine B assay; format: functional; conditions: RPMI-8226, 48 h, read-out: Activity
# [12] = Antiproliferative activity against human HL-60(TB) cells assessed as cell growth at 10^-4 M after 48 hrs by sulforhodamine B assay; format: functional; conditions: HL-60, 48 h, read-out: Activity
# [13] = Antiproliferative activity against human BT549 cells assessed as cell growth at 10^-8 M after 48 hrs by sulforhodamine B assay; format: functional; conditions: BT-549, 48 h, read-out: Activity
# [14] = system: MDA-MB-468; experiment: Antiproliferative activity against human MDA-MB-468 cells assessed as cell growth at 10^-7 M after 48 hrs by sulforhodamine B assay; format: functional; conditions: MDA-MB-468, 48 h, read-out: Activity
# [15] = system: ACHN; experiment: Antiproliferative activity against human ACHN cells assessed as cell growth at 10^-8 M after 48 hrs by sulforhodamine B assay; format: functional; conditions: read-out: Activity
# [16] = Antiproliferative activity against human HCT15 cells assessed as cell growth at 10^-8 M after 48 hrs by sulforhodamine B assay; format: functional; conditions: HCT-15, 48 h, read-out: Activity
# [17] = Antiproliferative activity against human HCT116 cells assessed as cell growth at 10^-4 M after 48 hrs by sulforhodamine B assay; format: functional; conditions: HCT-116, 48 h, read-out: Activity
# [18] = system: 786-0; experiment: Antiproliferative activity against human 786-0 cells assessed as cell growth at 10^-7 M after 48 hrs by sulforhodamine B assay; format: functional; conditions: 786-0, 48 h, read-out: Activity
# [19] = target: CYP2C19 (Homo sapiens, UniProt P33261); experiment: Inhibition of recombinant human CYP2C19 assessed as remaining enzyme activity at 10 uM after 5 mins in presence of NADP by fluorescence plate reader analysis; format: ADME; conditions: read-out: Activity
# Sequence of CYP2C19 (P33261 whole entry): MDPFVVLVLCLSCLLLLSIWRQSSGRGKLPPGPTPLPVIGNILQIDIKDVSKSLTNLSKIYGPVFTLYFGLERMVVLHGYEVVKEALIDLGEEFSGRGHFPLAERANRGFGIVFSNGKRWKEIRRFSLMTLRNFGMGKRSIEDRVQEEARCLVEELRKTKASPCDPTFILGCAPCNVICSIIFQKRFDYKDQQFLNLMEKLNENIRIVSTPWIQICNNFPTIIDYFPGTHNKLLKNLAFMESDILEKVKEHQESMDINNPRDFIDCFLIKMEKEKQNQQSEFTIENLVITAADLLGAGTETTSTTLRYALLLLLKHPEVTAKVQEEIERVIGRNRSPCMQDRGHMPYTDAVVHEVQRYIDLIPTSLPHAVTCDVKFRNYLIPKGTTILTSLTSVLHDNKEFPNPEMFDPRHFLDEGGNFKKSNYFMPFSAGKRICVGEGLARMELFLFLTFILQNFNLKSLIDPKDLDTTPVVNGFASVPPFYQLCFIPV
# [20] = Antiproliferative activity against human NCI-ADR-RES cells assessed as cell growth at 10^-8 M after 48 hrs by sulforhodamine B assay; format: functional; conditions: read-out: Activity
# [21] = Antiproliferative activity against human SKOV3 cells assessed as cell growth at 10^-6 M after 48 hrs by sulforhodamine B assay; format: functional; conditions: SK-OV-3, 48 h, read-out: Activity
# [22] = system: 786-0; experiment: Antiproliferative activity against human 786-0 cells assessed as cell growth at […] after 48 hrs by sulforhodamine B assay; format: functional; conditions: 786-0, 48 h, read-out: Activity
# [23] = Antiproliferative activity against human HCT15 cells assessed as cell growth at 10^-6 M after 48 hrs by sulforhodamine B assay; format: functional; conditions: HCT-15, 48 h, read-out: Activity
# [24] = system: M14; experiment: Antiproliferative activity against human M14 cells assessed as cell growth at 10^-7 M after 48 hrs by sulforhodamine B assay; format: functional; conditions: M14, 48 h, read-out: Activity
# [25] = system: MCF7; experiment: Antiproliferative activity against human MCF7 cells assessed as cell growth at 10^-8 M after 48 hrs by sulforhodamine B assay; format: functional; conditions: MCF7, 48 h, read-out: Activity
# [26] = Antiproliferative activity against human BT549 cells assessed as cell growth at 10^-7 M after 48 hrs by sulforhodamine B assay; format: functional; conditions: BT-549, 48 h, read-out: Activity
# [27] = system: SK-MEL-28; experiment: Antiproliferative activity against human SK-MEL-28 cells assessed as cell growth at 10^-7 M after 48 hrs by sulforhodamine B assay; format: functional; conditions: SK-MEL-28, 48 h, read-out: Activity
# [28] = Antiproliferative activity against human SF295 cells assessed as cell growth at 10^-4 M after 48 hrs by sulforhodamine B assay; format: functional; conditions: SF-295, 48 h, read-out: Activity
# [29] = system: MCF7; experiment: Antiproliferative activity against human MCF7 cells assessed as cell growth at 10^-7 M after 48 hrs by sulforhodamine B assay; format: functional; conditions: MCF7, 48 h, read-out: Activity
# [30] = system: NCI-H226; experiment: Antiproliferative activity against human NCI-H226 cells assessed as cell growth at 10^-6 M after 48 hrs by sulforhodamine B assay; format: functional; conditions: NCI-H226, 48 h, read-out: Activity
# [31] = Antiproliferative activity against human UACC62 cells assessed as cell growth at 10^-6 M after 48 hrs by sulforhodamine B assay; format: functional; conditions: UACC-62, 48 h, read-out: Activity
# [32] = system: SN12C; experiment: Antiproliferative activity against human SN12C cells assessed as cell growth at 10^-4 M after 48 hrs by sulforhodamine B assay; format: functional; conditions: read-out: Activity
# [33] = Antiproliferative activity against human OVCAR4 cells assessed as cell growth at 10^-6 M after 48 hrs by sulforhodamine B assay; format: functional; conditions: OVCAR-4, 48 h, read-out: Activity
# [34] = Antiproliferative activity against human LOXIMVI cells assessed as cell growth at 10^-7 M after 48 hrs by sulforhodamine B assay; format: functional; conditions: LOX IMVI, read-out: Activity
# [35] = Antiproliferative activity against human Caki1 cells assessed as cell growth at 10^-7 M after 48 hrs by sulforhodamine B assay; format: functional; conditions: CAKI-1, 48 h, read-out: Activity
# [36] = system: M14; experiment: Antiproliferative activity against human M14 cells assessed as cell growth at 10^-8 M after 48 hrs by sulforhodamine B assay; format: functional; conditions: M14, 48 h, read-out: Activity
smiles,measurement,setting,value
CNC(=O)c1cc(Oc2ccc(NC(=O)Nc3ccc(Cl)c(C(F)(F)F)c3)cc2)ccn1 [SORAFENIB],GI50,[1],3160 nM
same,TGI,[1],3.98 µM
same,CC50,[1],10 µM
same,GI50,[2],2510 nM
same,TGI,[2],10 µM
same,CC50,[2],39.8 µM
same,GI50,[3],2510 nM
same,TGI,[3],10 µM
same,GI50,[4],3160 nM
same,TGI,[4],20 µM
same,CC50,[4],79.4 µM
same,GI50,[5],3160 nM
same,TGI,[5],100 µM
same,CC50,[5],100 µM
same,TGI,[6],5.01 µM
same,CC50,[6],20 µM
same,GI50,[7],2510 nM
same,TGI,[7],15.9 µM
same,CC50,[7],79.4 µM
same,TGI,[8],3.98 µM
CNC(=O)c1cc(Oc2ccc3nc(NC(=O)Nc4cc(C(F)(F)F)cc(C(F)(F)F)c4)sc3c2)ccn1,GI50,[1],1150 nM
same,TGI,[1],2.69 µM
same,CC50,[1],6.28 µM
same,growth at 1 µM,[9],-2%
same,GI50,[2],1640 nM
same,TGI,[2],3.79 µM
same,CC50,[2],8.76 µM
same,growth at 1 µM,[10],51%
same,growth at 100 µM,[11],-52%
same,growth at 100 µM,[12],-59%
same,growth at 0.01 µM,[13],89%
same,growth at 0.1 µM,[14],91%
same,growth at 0.01 µM,[15],94%
same,growth at 0.01 µM,[16],88%
same,GI50,[3],1270 nM
same,LC50 (concentration killing 50% of cells),[3],6.44 µM
same,TGI,[3],2.86 µM
same,growth at 100 µM,[17],-95%
same,GI50,[4],1550 nM
same,TGI,[4],3.52 µM
same,CC50,[4],7.97 µM
same,growth at 0.1 µM,[18],99%
same,"activity at 5 min, 10 µM",[19],70.1%
same,GI50,[5],784 nM
same,TGI,[5],4.86 µM
same,CC50,[5],> 100 µM
same,growth at 0.01 µM,[20],101%
same,growth at 1 µM,[21],72%
same,growth at 100 µM,[22],-94%
same,growth at 1 µM,[23],76%
same,growth at 0.1 µM,[24],104%
same,growth at 0.01 µM,[25],85%
same,growth at 0.1 µM,[26],96%
same,growth at 0.1 µM,[27],96%
same,growth at 100 µM,[28],-71%
same,growth at 0.1 µM,[29],87%
same,growth at 1 µM,[30],71%
same,growth at 1 µM,[31],37%
same,GI50,[6],583 nM
same,TGI,[6],2.1 µM
same,CC50,[6],5.77 µM
same,growth at 100 µM,[32],-60%
same,growth at 1 µM,[33],49%
same,growth at 0.1 µM,[34],93%
same,growth at 0.1 µM,[35],94%
same,GI50,[7],1250 nM
same,TGI,[7],3.16 µM
same,CC50,[7],8.01 µM
same,GI50,[8],1120 nM
same,LC50 (concentration killing 50% of the starting cells),[8],5.37 µM
same,TGI,[8],2.46 µM
same,growth at 0.01 µM,[36],91%
